From patent US20250034136A1 (Nimbus Wadjet, Inc., priority 2023, published 2025) come the findings set out here.

In assay [1] the test system is p21 induction in HCT116 cells. Kind of assay: p21 induction in HCT116 cells. It is filed as cell-based. Conditions: read-out: P21_EC50. The gist of the method: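 HCT116 cells, 2,000/well, treated 24 h at 37 °C with 11-point compound dilutions in duplicate. Fixed, then immunostained for p21 and GAPDH and read by near-IR imaging at 800/700 nm. Normalized to DMSO (low) and reference WRN inhibitor (high) controls; EC50 from non-linear regression.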

Assay [2] deals with WRN (BV08), human Werner helicase (Uniprot Q14191, amino acids 517-1235 with L1074F point mutation) (Homo sapiens (Human), UniProt Q14191, L1074F). The experiment in a line: WRN (BV08) ADP-Glo assay. Format: biochemical. Conditions: class symbols A-E, read-out: ADP-Glo_hWRN_IC50. For orientation: In ADP-Glo the light output rises with the ADP produced.
The mark [3] stands for this setting: Homo sapiens, HCT-116, 24 h, HCT116 cells, 24 h compound incubation.

The structures appear in SMILES notation. Read-outs that look alike come from different tables or passages of the source. Bounds are passed on as bounds.

Chain of WRN (BV08), human Werner helicase (Uniprot Q14191, amino acids 517-1235 with L1074F point mutation) (Q14191 other isoform, or with tags, fused parts or gaps L1074F (already in the parent)): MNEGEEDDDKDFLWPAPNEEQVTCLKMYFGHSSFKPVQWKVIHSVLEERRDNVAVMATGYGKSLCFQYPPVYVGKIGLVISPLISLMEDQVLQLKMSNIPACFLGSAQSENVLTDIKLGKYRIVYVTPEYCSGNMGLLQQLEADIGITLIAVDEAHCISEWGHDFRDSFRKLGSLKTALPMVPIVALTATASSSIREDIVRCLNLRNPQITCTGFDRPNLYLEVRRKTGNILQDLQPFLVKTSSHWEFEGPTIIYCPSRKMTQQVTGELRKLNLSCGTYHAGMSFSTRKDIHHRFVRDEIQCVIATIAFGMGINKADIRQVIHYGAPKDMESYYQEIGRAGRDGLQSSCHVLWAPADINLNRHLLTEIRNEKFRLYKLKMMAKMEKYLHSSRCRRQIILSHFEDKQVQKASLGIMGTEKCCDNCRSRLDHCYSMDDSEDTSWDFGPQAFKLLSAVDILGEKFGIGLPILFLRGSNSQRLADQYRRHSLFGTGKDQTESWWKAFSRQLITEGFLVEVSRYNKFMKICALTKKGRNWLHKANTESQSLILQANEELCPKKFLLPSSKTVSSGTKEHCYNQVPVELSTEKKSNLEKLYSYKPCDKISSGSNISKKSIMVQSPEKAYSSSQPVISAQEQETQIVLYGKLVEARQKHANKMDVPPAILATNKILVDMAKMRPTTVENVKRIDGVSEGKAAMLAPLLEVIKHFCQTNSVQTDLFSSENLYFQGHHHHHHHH

As to `CCc1c(N2CCN(C(=O)c3ncnc(C)c3O)CC2)c(=O)c2nc(C=C(C)C)cnc2n1CC(=O)Nc1ccc(C(F)(F)F)cc1Cl` [I-37, N-(2-chloro-4-(trifluoromethyl)phenyl)-2-(6-ethyl-7-(4-(5-hydroxy-6-methylpyrimidine-4-carbonyl)piperazin-1-yl)-2-(2-methylprop-1-en-1-yl)-8-oxopyrido[2,3-b]pyrazin-5(8H)-yl)acetamide], the EC50 in assay [1] (setting [3]) is under 500 nM. Also, the IC50 in assay [2] was at most 5 nM.
Regarding `CCc1c(N2CCN(C(=O)c3ncnc(C)c3O)CC2)c(=O)c2nc(N(C)C)c(C)nc2n1CC(=O)Nc1ccc(C(F)(F)F)cc1Cl` [I-29, N-(2-chloro-4-(trifluoromethyl)phenyl)-2-(2-(dimethylamino)-6-ethyl-7-(4-(5-hydroxy-6-methylpyrimidine-4-carbonyl)piperazin-1-yl)-3-methyl-8-oxopyrido[2,3-b]pyrazin-5(8H)-yl)acetamide], the EC50 in assay [1] (Homo sapiens, HCT-116, 24 h) lay in the range of 500 to 2000 nM. Moreover, the IC50 in assay [2] lay in the range of 5 to 50 nM.
With `CCc1c(N2CCN(C(=O)c3c(OC(F)F)ncc(C)c3O)[C@H]3CC[C@@H]32)c(=O)c2nc(N(C)C)cnc2n1CC(=O)Nc1ccc(C(F)(F)F)cc1Cl` [I-281, N-[2-chloro-4-(trifluoromethyl)phenyl]-2-{7-[(1S,6S)-5-[2-(difluoromethoxy)-4-hydroxy-5-methylpyridine-3-carbonyl]-2,5-diazabicyclo[4.2.0]octan-2-yl]-2-(dimethylamino)-6-ethyl-8-oxo-5H,8H-pyrido[2,3-b]pyrazin-5-yl}acetamide], the EC50 in assay [1] (setting [3]) is under 500 nM. The IC50 in assay [2] lay within 5 to 50 nM.
On to `CCc1c(N2CCN(C(=O)c3ncnc(C)c3O)[C@H]3CC[C@@H]32)c(=O)c2nc(N(C)CCO)cnc2n1CC(=O)Nc1ccc(C(F)(F)F)cc1Cl` [I-264, N-[2-chloro-4-(trifluoromethyl)phenyl]-2-{6-ethyl-7-[(1S,6S)-5-(5-hydroxy-6-methylpyrimidine-4-carbonyl)-2,5-diazabicyclo[4.2.0]octan-2-yl]-2-[(2-hydroxyethyl)(methyl)amino]-8-oxo-5H,8H-pyrido[2,3-b]pyrazin-5-yl}acetamide], for which the EC50 in assay [1] (setting [3]) was under 500 nM. The IC50 in assay [2] was in the range of 5 to 50 nM.
Turning to `CCc1c(N2CCN(C(=O)c3ncnc(C)c3O)[C@H]3CC[C@@H]32)c(=O)c2nc(N(C)C)cnc2n1CC(=O)NC12CC(C(F)(F)F)(C1)C2` [I-110, 2-(2-(dimethylamino)-6-ethyl-7-((1S,6S)-5-(5-hydroxy-6-methylpyrimidine-4-carbonyl)-2,5-diazabicyclo[4.2.0]octan-2-yl)-8-oxopyrido[2,3-b]pyrazin-5(8H)-yl)-N-(3-(trifluoromethyl)bicyclo[1.1.1]pentan-1-yl)acetamide], the EC50 in assay [1] (setting [3]) is over 5000 nM. Also, in assay [2], the IC50 was in the range of 100 to 500 nM.
The matching figures for `CCc1c(N2CCN(C(=O)c3ncnc(C)c3O)CC2)c(=O)c2nc(N(C)[C@H]3C[C@H](OC)C3)cnc2n1CC(=O)Nc1ccc(C(F)(F)F)cc1Cl` [I-92, N-(2-chloro-4-(trifluoromethyl)phenyl)-2-(6-ethyl-7-(4-(5-hydroxy-6-methylpyrimidine-4-carbonyl)piperazin-1-yl)-2-(((1r,3r)-3-methoxycyclobutyl)(methyl)amino)-8-oxopyrido[2,3-b]pyrazin-5(8H)-yl)acetamide]: 500 to 2000 nM and 5 to 50 nM.
For `CCc1c(N2CCN(C(=O)c3ncnc(C)c3O)CC2)c(=O)c2nc(NC3CC3)cnc2n1CC(=O)Nc1ccc(C(F)(F)F)cc1Cl` [I-165, N-[2-chloro-4-(trifluoromethyl)phenyl]-2-[2-(cyclopropylamino)-6-ethyl-7-[4-(5-hydroxy-6-methylpyrimidine-4-carbonyl)piperazin-1-yl]-8-oxo-5H,8H-pyrido[2,3-b]pyrazin-5-yl]acetamide], the EC50 in assay [1] (setting [3]) was in the range of 500 to 2000 nM. Moreover, the IC50 in assay [2] lay within 5 to 50 nM.
For the compound `CCc1c(C2CCN(C(=O)c3ncnc(C)c3O)CC2)c(=O)c2nc(N(C)C)cnc2n1CC(=O)Nc1ccc(C(F)(F)F)cc1Cl` [I-221, N-[2-chloro-4-(trifluoromethyl)phenyl]-2-[2-(dimethylamino)-6-ethyl-7-[1-(5-hydroxy-6-methylpyrimidine-4-carbonyl)piperidin-4-yl]-8-oxo-5H,8H-pyrido[2,3-b]pyrazin-5-yl]acetamide], in assay [1] (setting [3]), the EC50 is over 5000 nM. Also, the IC50 in assay [2] was in the range of 5 to 50 nM.
Turning to `CCc1c(N2CCN(C(=O)c3ncnc(C)c3O)[C@H]3CC(F)(F)C[C@@H]32)c(=O)c2nc(N(C)C)cnc2n1CC(=O)Nc1ccc(C(F)(F)F)cc1Cl` (racemic) [I-291, rac-N-(2-chloro-4-(trifluoromethyl)phenyl)-2-(7-(6,6-difluoro-4-(5-hydroxy-6-methylpyrimidine-4-carbonyl)octahydro-1H-cyclopenta[b]pyrazin-1-yl)-2-(dimethylamino)-6-ethyl-8-oxopyrido[2,3-b]pyrazin-5(8H)-yl)acetamide], the EC50 in assay [1] (setting [3]) fell in the range of 2000 to 5000 nM. Further, the IC50 in assay [2] lay in the range of 5 to 50 nM.
The corresponding values for `CCc1c(N2CCN(C(=O)c3ncnc(C)c3O)[C@H]3CC[C@@H]32)c(=O)c2nc(C3CC3)cnc2n1CC(=O)Nc1ccc(C(F)(F)F)cc1Cl` [I-100, N-(2-chloro-4-(trifluoromethyl)phenyl)-2-(2-cyclopropyl-6-ethyl-7-((1S,6S)-5-(5-hydroxy-6-methylpyrimidine-4-carbonyl)-2,5-diazabicyclo[4.2.0]octan-2-yl)-8-oxopyrido[2,3-b]pyrazin-5(8H)-yl)acetamide] are under 500 nM and at most 5 nM.
The matching figures for `CCc1c(N2CCN(C(=O)c3ncnc(C)c3O)[C@H](C)C2)c(=O)c2nc(N(C)C)cnc2n1CC(=O)Nc1ccc(C(F)(F)F)cc1Cl` [I-57, (R)-N-(2-chloro-4-(trifluoromethyl)phenyl)-2-(2-(dimethylamino)-6-ethyl-7-(4-(5-hydroxy-6-methylpyrimidine-4-carbonyl)-3-methylpiperazin-1-yl)-8-oxopyrido[2,3-b]pyrazin-5(8H)-yl)acetamide]: 500 to 2000 nM and 5 to 50 nM.
As to `CCO/C=C/c1cnc2c(n1)c(=O)c(N1CCN(C(=O)c3ncnc(C)c3O)CC1)c(CC)n2CC(=O)Nc1ccc(C(F)(F)F)cc1Cl` [I-15, (E)-N-(2-chloro-4-(trifluoromethyl)phenyl)-2-(2-(2-ethoxyvinyl)-6-ethyl-7-(4-(5-hydroxy-6-methylpyrimidine-4-carbonyl)piperazin-1-yl)-8-oxopyrido[2,3-b]pyrazin-5(8H)-yl)acetamide], the EC50 in assay [1] (setting [3]) is under 500 nM. Besides, the IC50 in assay [2] was in the range of 5 to 50 nM.
For `CCc1c(N2CCN(C(=O)c3ncnc(C)c3O)CC2)c(=O)c2nc(N(C)C)cnc2n1CC(=O)Nc1ccc(S(F)(F)(F)(F)F)cc1Cl` [I-132, N-[2-chloro-4-(pentafluoro-lambda6-sulfanyl)phenyl]-2-[2-(dimethylamino)-6-ethyl-7-[4-(5-hydroxy-6-methylpyrimidine-4-carbonyl)piperazin-1-yl]-8-oxo-5H,8H-pyrido[2,3-b]pyrazin-5-yl]acetamide], in assay [1] (setting [3]), the EC50 is under 500 nM. Besides, the IC50 in assay [2] was in the range of 5 to 50 nM.
The matching figures for `CCc1c(N2CCN(C(=O)c3ncnc(C)c3O)CC2)c(=O)c2nc(/C=C/C3CCC3)cnc2n1CC(=O)Nc1ccc(C(F)(F)F)cc1Cl` [I-144, N-[2-chloro-4-(trifluoromethyl)phenyl]-2-{2-[(1E)-2-cyclobutylethenyl]-6-ethyl-7-[4-(5-hydroxy-6-methylpyrimidine-4-carbonyl)piperazin-1-yl]-8-oxo-5H,8H-pyrido[2,3-b]pyrazin-5-yl}acetamide]: 500 to 2000 nM and at most 5 nM.
Take `CCc1c(N2CCN(C(=O)c3ncnc(C)c3O)C3COCC32)c(=O)c2nc(N(C)C)cnc2n1CC(=O)Nc1ccc(C(F)(F)F)cc1Cl` (single isomer, unassigned) [I-278, N-(2-chloro-4-(trifluoromethyl)phenyl)-2-(2-(dimethylamino)-6-ethyl-7-(4-(5-hydroxy-6-methylpyrimidine-4-carbonyl)hexahydrofuro[3,4-b]pyrazin-1(2H)-yl)-8-oxopyrido[2,3-b]pyrazin-5(8H)-yl)acetamide]: the EC50 in assay [1] (HCT116 cells, 24 h compound incubation) lay within 2000 to 5000 nM. Further, in assay [2], the IC50 was in the range of 5 to 50 nM.
Regarding `CCc1c(N2CCN(C(=O)c3[nH]nc(C)c3O)CC2)c(=O)c2ncc(C)nc2n1CC(=O)Nc1ccc(C(F)(F)F)cc1Cl` [I-32, N-(2-chloro-4-(trifluoromethyl)phenyl)-2-(6-ethyl-7-(4-(4-hydroxy-3-methyl-1H-pyrazole-5-carbonyl)piperazin-1-yl)-3-methyl-8-oxopyrido[2,3-b]pyrazin-5(8H)-yl)acetamide], the EC50 in assay [1] (setting [3]) is over 5000 nM. Also, the IC50 in assay [2] lay within 50 to 100 nM.
The corresponding values for `CCc1c(N2CCN(C(=O)c3ncnc(C)c3O)[C@H]3CC[C@@H]32)c(=O)c2nc(N3CCCC3)cnc2n1CC(=O)Nc1ccc(C(F)(F)F)cc1Cl` [I-105, N-(2-chloro-4-(trifluoromethyl)phenyl)-2-(6-ethyl-7-((1S,6S)-5-(5-hydroxy-6-methylpyrimidine-4-carbonyl)-2,5-diazabicyclo[4.2.0]octan-2-yl)-8-oxo-2-(pyrrolidin-1-yl)pyrido[2,3-b]pyrazin-5(8H)-yl)acetamide] are under 500 nM and 5 to 50 nM.
Consider `CCc1c(N2CCN(C(=O)c3ncnc(C)c3O)C3(CC3)C2)c(=O)c2nc(N(C)C)cnc2n1CC(=O)Nc1ccc(C(F)(F)F)cc1Cl` [I-176, N-[2-chloro-4-(trifluoromethyl)phenyl]-2-[2-(dimethylamino)-6-ethyl-7-[4-(5-hydroxy-6-methylpyrimidine-4-carbonyl)-4,7-diazaspiro[2.5]octan-7-yl]-8-oxo-5H,8H-pyrido[2,3-b]pyrazin-5-yl]acetamide], for which the EC50 in assay [1] (setting [3]) is over 5000 nM. Also, the IC50 in assay [2] lay in the range of 50 to 100 nM.
